Source: US10668049B2, “Methods of treating cognitive decline with transforming growth factor beta inhibitors” (The Regents of the University of California, priority 2008, dated 2020)

Experiments:
[1] = target: T1, astrocyte specific glutamate transporter, SLC1A2 (Rattus norvegicus, UniProt P31596); assay: Whole cell patch recording of NMDA-mediated EPSCs in cortical pyramidal neurons; format: cell-based; conditions: DHK 100 μM
T1 construct: In vitro intracellular recordings were obtained from pyramidal neurons (layer 2-3) 23-28 h following the in vivo treatment; from tissue; host or cells: acute rat neocortical slices (astrocytic transporter; recordings from layer 2-3 pyramidal neurons)
T1 sequence (P31596 whole entry): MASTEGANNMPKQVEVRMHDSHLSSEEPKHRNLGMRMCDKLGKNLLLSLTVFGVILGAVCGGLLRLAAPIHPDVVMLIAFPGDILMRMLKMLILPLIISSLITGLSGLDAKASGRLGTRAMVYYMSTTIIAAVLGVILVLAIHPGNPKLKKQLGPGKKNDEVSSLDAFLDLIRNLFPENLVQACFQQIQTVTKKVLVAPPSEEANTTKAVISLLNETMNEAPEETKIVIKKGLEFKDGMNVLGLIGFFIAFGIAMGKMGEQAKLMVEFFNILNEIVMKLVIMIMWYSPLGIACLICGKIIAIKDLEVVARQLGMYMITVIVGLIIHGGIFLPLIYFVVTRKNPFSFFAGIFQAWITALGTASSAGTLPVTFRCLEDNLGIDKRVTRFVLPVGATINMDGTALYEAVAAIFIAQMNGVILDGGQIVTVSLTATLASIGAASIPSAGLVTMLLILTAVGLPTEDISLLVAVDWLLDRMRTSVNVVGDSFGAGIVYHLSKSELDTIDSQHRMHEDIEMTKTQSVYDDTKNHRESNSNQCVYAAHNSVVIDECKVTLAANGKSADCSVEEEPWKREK
Protocol: In vitro intracellular recordings were obtained from pyramidal neurons (layer 2-3) 23-28 h following the in vivo treatment with albumin or from control rats. Currents were recorded using the whole cell patch configuration, as described previously (Pavlovsky et al., 2003). In brief, glass pipettes were pulled from capillaries using a vertical puller (Narashige, Greenvale, N.Y.) and filled with a solution comprising (in mM): 150 CsCl, 1 MgCl2, 10 HEPES, 4 Na2ATP, 0.1 CaCl2, and 1.1 mM EGTA, pH adjusted to 7.2 with a final osmolarity of 290-310 mOsm. Cells were visualized using infrared differential interference phase contrast video-microscopy. Recordings were performed using AxoPatch 700B (Axon Instruments, Foster City, Calif.), digitized at 10 kHz and recorded using pClamp 9.2 (Axon Instruments, Foster City, Calif.). Patch pipette's resistance was 4-5 MΩ. Series resistance was not electronically compensated; however, cells in which series resistance varied by more than 25% were excluded from the analysis. Stimulation protocols were started at least 5 min following impalement to allow intracellular dialysis with the pipette solution. Excitatory post-synaptic currents (EPSCs) were evoked—using a bipolar stimulating electrode positioned <200 μm from the recorded cell—at 75% of the intensity producing maximal EPSCs. N-methyl-D-aspartic acid (NMDA) currents were recorded in the presence of blockers of α-amino-3-hydroxy-5-methyl-4-isoxazole-propionic acid (AMPA)/kainate (i.e., 30 μM CNQX) and of gamma-aminobutyric acid A (GABAA) receptors (i.e., 10 μM bicuculine methiodide). Cells were voltage clamped to +40 mV to alleviate NMDA receptor blockade and inactivate fast Na^+ currents. In some experiments, dihydrokainic acid (DHK, Tocris, Bristol, UK), 100 μM, was added to the extracellular solution to selectively block the astrocyte specific glutamate transporter, SLC1A2 (see Arriza et al., 1994).
To confirm that the transcriptional changes induced by albumin were associated with altered cellular functions, the clearance of extracellular glutamate and potassium in cortical slices 24 hours following albumin treatment in vivo was investigated. To measure synaptic glutamate levels during neuronal activation, the slowly inactivating (Lester et al., 1990) NMDA currents in cortical neurons were recorded by using the whole-cell patch configuration (in the presence of non-NMDA glutamate and GABA receptor blockers, see Methods). Cells were clamped at +40 mV to prevent a potential confounding effect of post-synaptic depolarization due to the accumulation of synaptic [K^+]o. […] Synaptic glutamate elicited by 50 extracellular stimulations at 2, 5, 10, 20, 50 and 100 Hz before and after adding the astrocytic SLC1A2 specific inhibitor, DHK was measured. In neurons from control animals, DHK had no effect on single EPSCs or EPSCs elicited at low stimulation frequencies (<20 Hz). […] The same experiments were then repeated 24 h following cortical application of albumin (i.e. during epileptogenesis). In contrast to the control experiments, DHK had no effect on EPSC amplitude in treated slices (FIG. 13b-c, right), supporting reduced expression of the astrocytic transporter SLC1A2.

[2] = test system: albumin-induced epileptogenesis; assay: EEG recording from awake rats during albumin-induced epileptogenesis; format: in vivo, rat
[3] = test system: neocortical slices; assay: Field potential recordings of epileptiform activity in neocortical slices; format: cell-based, rat
Protocol: Brain slices for the in vitro experiments were prepared by means of standard techniques (Ivens et al., 2007; Pavlovsky et al., 2003; Seiffert et al., 2004). Slices were transferred to a recording chamber where they were incubated in aCSF containing BSA (6.7 mg/ml), TGF-β1 (10 ng/ml) or artificial serum (aSerum, composition based on aCSF with the following changes, composition in mM: 0.8 MgSO4, 1.3 CaCl2, 5.7 KCl, 1 L-glutamine, 0.1 albumin). To block the activity of TGF-β1, slices were incubated in aCSF containing SB431542 (10 μM) before the addition of TGF-β1 (10 ng/ml). To block TGF-βRs, slices were incubated in aCSF containing SB431542 (10 μM) and TGF-βRII antibody (10 μg/ml) for 30 min followed by incubation in BSA in the presence of TGF-βR blockers. For detection of epileptiform activity, field potentials were recorded >4 h following incubation in cortical layer IV using extracellular glass microelectrodes (˜3 MΩ) in response to bipolar stimulation at the border of white and grey matter.
To assess the hypothesis that activation of the TGF-β signaling pathway is the mechanism underlying albumin-induced epileptogenesis, we activated this pathway directly by incubating neocortical slices with TGF-β1 (10 ng/mL) in artificial cerebrospinal fluid (aCSF) and performed electrophysiological recordings. These recordings were compared to those of slices treated with a solution containing serum levels of electrolytes and 0.1 mM albumin (aSERUM, previously shown to induce epileptogenesis; Ivens et al., 2007), albumin in aCSF, or aCSF (control). […] When albumin was added to the control aCSF solution, epileptiform activity was recorded in response to stimulation of the white matter (n=8 out of 12 slices, 6 animals). Importantly. TGF-β1 treatment was sufficient to recapitulate epileptiform activity similar to that seen following treatment with aSERUM and albumin in aCSF (n=5 out of 5 slices, 4 animals; n=7 out of 9 slices, 3 animals; and n=8 out of 12 slices, 6 animals, respectively). In all three cases, the evoked epileptiform activity, was all-or-none in nature, paroxysmal and prolonged, similar to that seen following BBB opening with bile salts (Ivens et al., 2007; Seiffert et al., 2004) and typical to that observed in acute models of epilepsy (Gutnick et al., 1982).
To further confirm that the TGF-β1 induced epileptiform activity was dependent on the TGF-βR mediated pathway, we performed additional trials of the above experiments in the presence of two TGF-βR blockers (SB431542, the TGF-βRI kinase activity inhibitor and TGF-βRII antibody).

Compound: CC(C)[C@H]1CN[C@H](C(=O)O)[C@H]1CC(=O)O [DHK, dihydrokainic acid, reference compound]
- effect on NMDA currents at stimulation frequencies >20 Hz ([1]; neurons from control animals): increased NMDA currents
- effect on single EPSCs or EPSCs elicited at low stimulation frequencies (<20 Hz) ([1]; neurons from control animals): no effect
- effect on EPSC amplitude ([1]; slices 24 h following cortical application of albumin): no effect

Compound: CCCCc1nc(Cl)c(CO)n1Cc1ccc(-c2ccccc2-c2nnn[nH]2)cc1.[K] [Losartan, 2-butyl-4-chloro-1-[p-(o-1H-tetrazol-5-ylphenyl)benzyl]imidazole-5-methanol, monopotassium salt, reference compound]
- number of seizure like events (SLEs) ([2]; losartan-treated rats (n=7) compared to BSA-treated ones (n=8)): significantly smaller
- albumin-induced EEG changes (signal harmony, complexity) during epileptogenesis ([2]; single, focal application together with BSA, 10 μM): reversed the albumin-induced EEG changes

Compound: TGF-β1: TGF-β1 (10 ng/ml, Peprotech), used to activate the TGF-β pathway
- integral of the field potential ([3]; inducer alone, without TGF-βR blockers): 84.1±20.1 mV*ms
- evoked epileptiform activity in response to stimulation of the white matter, slices showing it ([3]; slices incubated with the inducer): 5 out of 5
